Reference: patent publication US12241888B2, “Platform for assessment of the transcytosis of extracellular vesicles across endothelial barriers and uses thereof” (Children's Medical Center Corporation, priority 2018, dated 2025)

Test system: brain EC monolayer
Test: Transcytosis assay with chemical-inhibition of endocytosis
Format: cell-based, Human
Conditions: endothelial cells pretreated with increasing doses of endocytosis inhibitor
Procedure: The model was optimized for this novel application. […] The cells become confluent in 48-72 hours. […] A-2) Transcytosis assay with chemical-inhibition of endocytosis: Transcytosis occurs following the uptake of macromolecules or EVs via endocytosis. […] A variety of chemicals that target different steps of endocytosis (e.g. Dynasore, filipin, etc.) can be used to pretreat the endothelial cells in the transwell® model to inhibit endocytosis prior to the transcytosis assay. […] It is worth to note that the endocytosis of EVs depends on the interaction of EV surface proteins with endothelial cell receptors, which depending on the EV proteins involved can go through different routes of endocytosis (clathrin-dependent, clathrin-independent, etc.).

## O=C(N/N=C/c1ccc(O)c(O)c1)c1cc2ccccc2cc1O [Dynasore]
  fluorescence intensity in the lower chamber (EV transcytosis signal): decreased with increasing doses
